How the values were obtained:
Assay type in all cases: binding
[1] = target: T1, N-terminal CRD of hGalectin-4 (Gal-4N) (Homo sapiens, UniProt P56470); assay: 1H-15N HSQC NMR-based titrations (chemical shift perturbation) of 15N-labeled Gal-4N; conditions: for Kd: HSQC NMR-based titration, 50 μM 15N-labeled lectin, 298 K, read-out: KD (μM) (NMR)
T1 construct: N-terminal CRD of hGalectin-4 (amino acids 1–150, including an additional C-terminus His-Tag); His-Tag (C, cleaved yes); made in house; host or cells: E. coli BL21 (pET29b)
T1 sequence (P56470 1-150): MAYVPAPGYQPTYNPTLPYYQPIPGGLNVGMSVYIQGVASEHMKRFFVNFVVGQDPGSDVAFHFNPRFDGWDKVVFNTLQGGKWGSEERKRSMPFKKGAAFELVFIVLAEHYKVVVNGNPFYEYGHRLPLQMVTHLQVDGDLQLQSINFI
Description: The molecular recognition event was also analyzed from the perspective of the lectin. Thus, a chemical shift perturbation (CSP) analysis of the changes produced in the ^1H-^15N HSQC spectra recorded for ^15N-labeled Gal-4N upon addition of the different ligands was carried out. This analysis required the NH backbone NMR assignment of the lectin signals, following well-established triple resonance 3D NMR methods (see Materials and methods and Supplementary Information). The assignment protocol allowed assigning 80% of the NH backbone resonances. In addition to the ligands shown in Scheme 1, the corresponding non-fucosylated analogs and the H antigens (devoid of the terminal Gal/GalNAc moieties, see Supplementary Information), as well as lactose, were also employed. Thus, a full comparative analysis on the monosaccharide-specific effects on the lectin CSP was achieved.
The total volume for the NMR samples was 500/μl. The lectin was in phosphate-buffered saline (50 mM sodium phosphate, 150 mM NaCl, pH 7.4), either in D2O or 90:10 H2O:D2O depending on the NMR experiment. The pH was adjusted with the required amount of NaOH and HCl or NaOD and DCl.
experiments were acquired using an 800 MHz Bruker spectrometer with a cryoprobe (Bruker, Billerica, MA, United States). The samples were prepared using 50 μM of the ^15N-labeled lectin in the corresponding buffer in a 90:10 H2O:D2O ratio. The experiments were performed at 298 K. Six to nine points were recorded for each ligand and CSP and KD were calculated using CcpNmr Analysis 2.4.2.

[2] = target: T1, N-terminal CRD of hGalectin-4 (Gal-4N); assay: 1H Saturation Transfer Difference (STD) NMR epitope mapping
Description: ^1H-saturation transfer difference NMR spectra were acquired for mixtures of Gal-4N (50 μM) with a 50-fold excess of ligand. Protein aromatic irradiation afforded the best STD intensities and thus these are discussed henceforth. The STD NMR spectra were very similar among the different ligands with respect to both the observed glycan protons and their intensities. […] Severe proton overlapping precluded a full comparison among ligands, but key isolated ^1H NMR resonance signals permitted to highlight evident differences.
All the STD NMR experiments were performed using an 800 MHz Bruker spectrometer with a cryoprobe (Bruker, Billerica, MA, United States). The samples were prepared in the corresponding deuterated buffer. The temperature was 288 K for every experiment. An amount of 50 μM of the lectin with 50 equivalents of the ligand was employed for every experiment except for lactose, for which a 1:70 ratio was used. The STD spectra were acquired with 1,024 scans, 2 s of saturation time using a train of 50 ms Gaussian-shaped pulses, and 3 s of relaxation delay. The spin-lock filter applied to remove the signals of the lectin was set at 40 ms. The on-resonance frequency was set for the aromatic region at 6.58 ppm, while the off-resonance frequency was set at 100 ppm.
Supplementary Table S1. Relative STD-AF (Amplification factor) and STD percentage of each non overlapping proton of each ligand.

[3] = target: T1, N-terminal CRD of hGalectin-4 (Gal-4N); assay: Isothermal titration calorimetry (ITC); conditions: for Kd: PBS pH 7.4, single binding site model
Description: Isothermal titration calorimetry experiments were performed using the MicroCal PEAQ-ITC calorimeter (Malvern Panalytical, Malvern, United Kingdom). Samples containing 100–200 μM of Gal-4N in PBS (50 mM sodium phosphate, pH 7.4, 300 mM NaCl) were titrated with stocks of 3–10 mM in PBS of glycans 4, 5, 7, 8, 9, and 11. During the automated experiment, small aliquots (2–3 μL) of the sugar stocks were added to the cell containing the lectin. Curve fitting to a single binding site model was performed with the MicroCal Origin 7 software.
Isothermal titratrion calorimetry (ITC). Isothermal Titration Calorimetry experiments were performed using MicroCal PEAQ-ITC calorimeter. Samples containing 100-200 µM of Gal-4N in PBS (50 mM sodium phosphate pH 7.4, 300 mM NaCl) were titrated with stocks of 3-10 mM in PBS of glycans A type 1, A type 2, A type 6, B type 1, B type 2 and B type 6. During the automated experiment, small aliquots (2-3 µL) of the sugar stocks were added to the cell containing the lectin. The association constants and the thermodynamic profile of the binding was calculated from the fitting of the titration data to a single binding site model.

Kd [1]	STD% ([2]; 1H-residue H1 Fuc)	STD-AF ([2]; 1H-residue H1 Fuc)	STD% ([2]; 1H-residue H1Galα)	STD-AF ([2]; 1H-residue H1Galα)	STD% ([2]; 1H-residue H1Galβ)	STD-AF ([2]; 1H-residue H1Galβ)	STD% ([2]; 1H-residue H3Galβ)	STD-AF ([2]; 1H-residue H3Galβ)	STD% ([2]; 1H-residue H4Galβ)	STD-AF ([2]; 1H-residue H4Galβ)	STD% ([2]; 1H-residue H5Galβ)	STD-AF ([2]; 1H-residue H5Galβ)	STD% ([2]; 1H-residue MetFuc)	STD-AF ([2]; 1H-residue MetFuc)	-TΔS (kcal mol^–1) (ITC) [3]	ΔG (kcal mol^–1) (ITC) [3]	ΔH (kcal mol^–1) (ITC) [3]	Kd [3]	SMILES	other results
190 µM	16%	0.0024	73%	0.0108	59%	0.0088	36%	0.0054	55%	0.0081	100%	0.0148	16%	0.0023	3.8 kcal mol^–1	−5.5 kcal mol^–1	−9.3 kcal mol^–1	88 µM	CC(=O)NC1C(O)OC(CO)C(OC2OC(CO)C(O)C(OC3OC(CO)C(O)C(O)C3O)C2OC2OC(C)C(O)C(O)C2O)C1O (stereo not shown) [B type-2 (tetra)]	STD% ([2]; 1H-residue H1GlcNAc): 24%; STD-AF ([2]; 1H-residue H1GlcNAc): 0.0035; STD% ([2]; 1H-residue H3GlcNAc): 36%; STD-AF ([2]; 1H-residue H3GlcNAc): 0.0054; STD% ([2]; 1H-residue H4Galα): 18%; STD-AF ([2]; 1H-residue H4Galα): 0.0027; STD-AF ([2]; 1H-residue NHAcGlcNAc (B type 1: first of two lines)): 0.0035
60 µM	28%	0.0105	74%	0.0276	80%	0.0298	29%	0.0108	82%	0.0307	100%	0.0374	20%	0.0074	6.4 kcal mol^–1	−5.9 kcal mol^–1	−12.3 kcal mol^–1	51 µM	CC1OC(OC2C(OC3C(CO)OC(O)C(O)C3O)OC(CO)C(O)C2OC2OC(CO)C(O)C(O)C2O)C(O)C(O)C1O (stereo not shown) [B type-6 (tetra)]	fold range of NMR-based binding affinities, best vs worse binder ([1]; B-type 6 vs A-type 4): 20 fold; STD% ([2]; 1H-residue H2Galα): 38%; STD-AF ([2]; 1H-residue H2Galα): 0.0142; STD% ([2]; 1H-residue H2Galβ): 34%; STD-AF ([2]; 1H-residue H2Galβ): 0.0129; STD% ([2]; 1H-residue H2Glca / H2Glcα): 39%; STD-AF ([2]; 1H-residue H2Glca / H2Glcα): 0.0146; STD% ([2]; 1H-residue H2Glcb / H2Glcβ): 36%; STD-AF ([2]; 1H-residue H2Glcb / H2Glcβ): 0.0135; STD% ([2]; 1H-residue H3Glcb / H3Glcβ): 46%; STD-AF ([2]; 1H-residue H3Glcb / H3Glcβ): 0.0172; STD% ([2]; 1H-residue H5Glcβ): 44%; STD-AF ([2]; 1H-residue H5Glcβ): 0.0163; binding enthalpy [3]: -12.3 kcal/mol; increased affinity of type-6 vs corresponding type-2 antigen ([3]; Glc vs GlcNAc at reducing end, β1–4 linked): two-fold; fold difference in affinity of the best binder ([3]; among tetrasaccharides of Figure 6 (ITC)): 5 fold
